This passage reports EC50 results from patent US8574563B2 (Bristol-Myers Squibb Company, priority 2006, dated 2013).

pEC50: −log10 of the molar value.

For one experiment, the system named is HCV 1b-377-neo replicon cells. Put plainly: HCV replicon assay, HCV 1b-377-neo replicon cells (1b FRET). It counts as cell-based, Hepatitis C virus genotype 1b. Particulars: HCV 1b-377-neo replicon cells; HCV 1b genotype; read-out: EC50 range against HCV 1b (Table 2, Range). The essentials:
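Compounds tested in HCV genotype 1b-377-neo replicon cells with a FRET read-out. Cells resistant to a reference NS5A inhibitor through a Y2065H NS5A mutation were run alongside wild-type cells.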
(Replicon systems follow genome replication, usually without infectious particles.)
Turning to “methyl ((1R)-2-((2S)-2-(5-(4′-(2-((2S)-1-(3- benzoylbenzyl)-2-pyrrolidinyl)-1H- imidazol-5-yl)-4-biphenylyl)-1H-imidazol-2- yl)-1-pyrrolidinyl)-2-oxo-1- phenylethyl)carbamate [Example 84-34]”, the pEC50 (usually the EC50 on a negative log10 scale, so that one unit is a factor of ten) is 7.00 to 9.00.

Staying with this experiment, now noted: Hepatitis C virus, HCV 1b-377-neo replicon cells; HCV 1b genotype; read-out: EC50 range against HCV 1b (Table 2, Range).
Consider `CCN(CC)[C@@H](C(=O)N1C[C@@H](F)C[C@H]1c1ncc(-c2ccc(-c3ccc(-c4cnc([C@@H]5C[C@H](F)CN5C(=O)[C@@H](c5ccccc5)N(CC)CC)[nH]4)cc3)cc2)[nH]1)c1ccccc1` [Example 24-6], for which the pEC50 is 9.00 to 12.00.

As to `O=C([C@@H](c1ccccc1)N1CCCC1)N1CCC[C@H]1c1ncc(-c2ccc(-c3ccc(-c4cnc([C@@H]5CCCN5C(=O)[C@@H](c5ccccc5)N5CCCC5)[nH]4)cc3C(F)(F)F)cc2)[nH]1` [Example 131], the pEC50 was 9.00 to 12.00.

In the case of `COC(=O)N[C@@H](C(=O)N1CCC[C@H]1c1ncc(-c2ccc(-c3ccc(-c4cnc([C@@H]5CCCN5C(=O)C5CCN(C)CC5)[nH]4)cn3)cc2)[nH]1)c1ccccc1` [Example 142, methyl ((1R)-2-((2S)-2-(5-(4-(5-(2-((2S)-1-((1-methyl-4-piperidinyl)carbonyl)-2-pyrrolidinyl)-1H-imidazol-5-yl)-2-pyridinyl)phenyl)-1H-imidazol-2-yl)-1-pyrrolidinyl)-2-oxo-1-phenylethyl)carbamate], the negative-log EC50 (pEC50) is 7.00 to 9.00.

As for `CC[C@H](NC(=O)OC)C(=O)N1[C@H](c2ncc(-c3ccc(-c4ccc(-c5cnc([C@@H]6C[C@@H]7C[C@@H]7N6C(=O)[C@H](CC)NC(=O)OC)[nH]5)cc4)cc3)[nH]2)C[C@@H]2C[C@@H]21` [Example M126, dimethyl (4,4′-biphenyldiylbis(1H-imidazole-5,2-diyl(1S,3S,5S)-2-azabicyclo[3.1.0]hexane-3,2-diyl((2S)-1-oxo-1,2-butanediyl)))biscarbamate], the pEC50 was 7.00 to 9.00.

Consider `COC(=O)N[C@@H](C(=O)N1CCC[C@H]1c1nc(-c2cc(-c3ccc(-c4cnc([C@@H]5CCCN5C(=O)[C@H](NC(=O)OC)c5ccccc5)[nH]4)cc3)ccc2OC)c[nH]1)c1ccccc1` [Example D34, dimethyl ((4-methoxy-3,4′-biphenyldiyl)bis(1H-imidazole-5,2-diyl(2S)-2,1-pyrrolidinediyl((1R)-2-oxo-1-phenyl-2,1-ethanediyl))) biscarbamate], for which the pEC50 was 9.00 to 12.00.

Consider `COC(=O)N[C@@H](C(=O)N1CCC[C@H]1c1nc(-c2ccc(-c3ccc(-c4[nH]c([C@@H]5CCCN5C(=O)[C@H](NC(=O)OC)c5ccccc5)nc4C)cc3)cc2)c(C)[nH]1)c1ccccc1` [Example E5j, dimethyl (4,4′-biphenyldiylbis((4-methyl-1H-imidazole-5,2-diyl)(2S)-2,1-pyrrolidinediyl((1R)-2-oxo-1-phenyl-2,1-ethanediyl)))biscarbamate], for which the pEC50 was 9.00 to 12.00.

In the case of `CCN(CC)[C@H](C)C(=O)N1CCC[C@H]1c1ncc(-c2ccc(-c3ccc(-c4cnc([C@@H]5CCCN5C(=O)[C@H](NC(=O)OC)c5ccccc5)[nH]4)cc3)cc2)[nH]1` [Example M63, methyl ((1R)-2-((2S)-2-(5-(4′-(2-((2S)-1-(N,N-diethyl-D-alanyl)-2-pyrrolidinyl)-1H-imidazol-5-yl)-4-biphenylyl)-1H-imidazol-2-yl)-1-pyrrolidinyl)-2-oxo-1-phenylethyl)carbamate], the pEC50 is 7.00 to 9.00.

Take `CN(C)[C@@H](C(=O)N1CCC[C@H]1c1ncc(-c2ccc(-c3ccc(-c4cnc([C@@H]5CCCN5C(=O)Cc5ccccc5F)[nH]4)cc3)cc2)[nH]1)c1ccccc1` [Example 94-51, (1R)-2-((2S)-2-(5-(4′-(2-((2S)-1-((2-fluorophenyl)acetyl)-2-pyrrolidinyl)-1H-imidazol-5-yl)-4-biphenylyl)-1H-imidazol-2-yl)-1-pyrrolidinyl)-N,N-dimethyl-2-oxo-1-phenylethanamine]: the pEC50 is 9.00 to 12.00.

Turning to `CCC(C)[C@H](NC)C(=O)N1CCC[C@H]1c1nc(-c2ccc(-c3ccc(-c4cnc([C@@H]5CCCN5C(=O)[C@@H](NC)C(C)CC)[nH]4)cc3)cc2)c[nH]1` (stereo partly drawn) [Example F33, (2S)-N,3-dimethyl-1-((2S)-2-(4-(4′-(2-((2S)-1-((2S)-3-methyl-2-(methylamino)pentanoyl)-2-pyrrolidinyl)-1H-imidazol-5-yl)-4-biphenylyl)-1H-imidazol-2-yl)-1-pyrrolidinyl)-1-oxo-2-pentanamine], the pEC50 is 6.00 to 7.00.

With `CC1(O)CCN([C@@H](C(=O)N2CCC[C@H]2c2ncc(-c3ccc(-c4ccc(-c5cnc([C@@H]6CCCN6C(=O)[C@@H](c6ccccc6)N6CCC(C)(O)CC6)[nH]5)cc4)cc3)[nH]2)c2ccccc2)CC1` [Example 24-2, 1,1′-(4,4′-biphenyldiylbis(1H-imidazole-5,2-diyl(2S)-2,1-pyrrolidinediyl((1R)-2-oxo-1-phenyl-2,1-ethanediyl)))bis(4-methyl-4-piperidinol)], the pEC50 is 9.00 to 12.00.

Regarding `CC(=O)NCCC(=O)N1CCC[C@H]1c1ncc(-c2ccc(-c3ccc(-c4cnc([C@@H]5CCCN5C(=O)CCNC(C)=O)[nH]4)cc3)cc2)[nH]1` [cj-134, N-(3-((2S)-2-(5-(4′-(2-((2S)-1-(3-acetamidopropanoyl)-2-pyrrolidinyl)-1H-imidazol-5-yl)-4-biphenylyl)-1H-imidazol-2-yl)-1-pyrrolidinyl)-3-oxopropyl)acetamide], the pEC50 is 7.00 to 9.00.

As for `COC(=O)N[C@H](C(=O)N1CCC[C@H]1c1ncc(-c2ccc(-c3ccc(-c4cnc([C@@H]5CCCN5C(=O)[C@@H](NC(=O)OC)C(C)(C)O)[nH]4)cc3)cc2)[nH]1)C(C)C` [Example M105], the pEC50 was 7.00 to 9.00.

Regarding `COC(=O)N[C@@H](C(=O)N1CCC[C@H]1c1ncc(-c2ccc(-c3ccc(-c4[nH]c([C@@H]5CCCN5C(=O)[C@H](NC(=O)OC)c5ccccc5)nc4C(F)(F)F)cc3)cc2)[nH]1)c1ccccc1` [Example J37, methyl ((1R)-2-((2S)-2-(5-(4′-(2-((2S)-1-((2R)-2-((methoxycarbonyl)amino)-2-phenylacetyl)-2-pyrrolidinyl)-1H-imidazol-5-yl)-4-biphenylyl)-4-(trifluoromethyl)-1H-imidazol-2-yl)-1-pyrrolidinyl)-2-oxo-1-phenylethyl)carbamate], the pEC50 was 9.00 to 12.00.

Regarding `CCN(CC)[C@H](C)C(=O)N1CCC[C@H]1c1ncc(-c2ccc(-c3ccc(-c4cnc([C@@H]5CCCN5C(=O)[C@H](C)NC(=O)OC)[nH]4)cc3)cc2)[nH]1` [Example M96, methyl ((1S)-2-((2S)-2-(5-(4′-(2-((2S)-1-(N,N-diethyl-D-alanyl)-2-pyrrolidinyl)-1H-imidazol-5-yl)-4-biphenylyl)-1H-imidazol-2-yl)-1-pyrrolidinyl)-1-methyl-2-oxoethyl)carbamate], the pEC50 is 6.00 to 7.00.

As for `O=C([C@H](O)Cc1ccccc1)N1CCC[C@H]1c1ncc(-c2ccc(-c3ccc(-c4cnc([C@@H]5CCCN5C(=O)[C@H](O)Cc5ccccc5)[nH]4)cc3)cc2)[nH]1` [Example 9, (2R,2′R)-1,1′-(4,4′-biphenyldiylbis(1H-imidazole-5,2-diyl(2S)-2,1-pyrrolidindiyl))bis(1-oxo-3-phenyl-2-propanol)], the pEC50 is 7.00 to 9.00.

Regarding `COC(=O)N[C@H](C(=O)N1CCC[C@H]1c1ncc(-c2ccc(-c3ccc(-c4cnc([C@@H]5CCCN5C(=O)[C@@H](Nc5ncccn5)C(C)C)[nH]4)cc3)cc2)[nH]1)C(C)C` [cj-11, methyl ((1S)-2-methyl-1-(((2S)-2-(5-(4′-(2-((2S)-1-(N-2-pyrimidinyl-L-valyl)-2-pyrrolidinyl)-1H-imidazol-5-yl)-4-biphenylyl)-1H-imidazol-2-yl)-1-pyrrolidinyl)carbonyl)propyl)carbamate], the pEC50 was 9.00 to 12.00.

As to `CN(C)[C@@H](C(=O)N1CCC[C@H]1c1ncc(-c2cnc(-c3cnc(-c4cnc([C@@H]5CCCN5C(=O)[C@@H](c5ccccc5)N(C)C)[nH]4)cn3)cn2)[nH]1)c1ccccc1` [Example 153c-5, (1R,1′R)-2,2′-(2,2′-bipyrazine-5,5′-diylbis(1H-imidazole-5,2-diyl(2S)-2,1-pyrrolidinediyl))bis(N,N-dimethyl-2-oxo-1-phenylethanamine)], the pEC50 is 7.00 to 9.00.

As to `CCN(CC)[C@H](C)C(=O)N1CCC[C@H]1c1ncc(-c2ccc(-c3ccc(-c4cnc([C@@H]5CCCN5C(=O)[C@@H](NC(=O)OC)C(C)C)[nH]4)cc3)cc2)[nH]1` [Example M70, methyl ((1S)-1-(((2S)-2-(5-(4′-(2-((2S)-1-(N,N-diethyl-D-alanyl)-2-pyrrolidinyl)-1H-imidazol-5-yl)-4-biphenylyl)-1H-imidazol-2-yl)-1-pyrrolidinyl)carbonyl)-2-methylpropyl)carbamate], the negative-log EC50 (pEC50) was 7.00 to 9.00.

Regarding `CCCc1[nH]c([C@@H]2CCCN2C(=O)[C@@H](c2ccccc2)N(CC)CC)nc1-c1ccc(-c2ccc(-c3cnc([C@@H]4CCCN4C(=O)[C@@H](c4ccccc4)N(CC)CC)[nH]3)cc2)cc1` [Example J14c.1, (1R)-2-((2S)-2-(4-(4′-(2-((2S)-1-((2R)-2-(diethylamino)-2-phenylacetyl)-2-pyrrolidinyl)-1H-imidazol-4-yl)-4-biphenylyl)-5-propyl-1H-imidazol-2-yl)-1-pyrrolidinyl)-N,N-diethyl-2-oxo-1-phenylethanamine], the pEC50 is 9.00 to 12.00.

With `COC(=O)N[C@@H](C)C(=O)N1CCC[C@H]1c1ncc(-c2ccc(-c3ccc(-c4cnc([C@@H]5CCCN5C(=O)[C@@H](NC(=O)OC)C(C)(C)C)[nH]4)cc3)cc2)[nH]1` [Example M95, methyl ((1S)-1-(((2S)-2-(5-(4′-(2-((2S)-1-(N-(methoxycarbonyl)-L-alanyl)-2-pyrrolidinyl)-1H-imidazol-5-yl)-4-biphenylyl)-1H-imidazol-2-yl)-1-pyrrolidinyl)carbonyl)-2,2-dimethylpropyl)carbamate], the pEC50 was 7.00 to 9.00.
